Key:
Experiment in all cases: GsX GloSensor assay with Gsα/q11
Format in all cases: cell-based
Conditions in all cases: 16.7 μM AA92593, COS-1 cells
[1] = target: T1, Xenopus Opn4x WT (Xenopus laevis, UniProt O57422)
T1 construct: expressed in transfected cells; host or cells: COS-1
Description: (§1) The GsX GloSensor assay using Gsα/q11 of Xenopus Opn4x and chicken Opn4-1 detected the light-dependent Gq activation in both non-mammalian-type melanopsins (Fig. 6, A and D). […] The ineffectiveness of AA92593 is consistent with the fact that Phe-94^2.61, Ser-188^ECL2, and Ser-269^6.52 are not conserved among non-mammalian-type melanopsins (Figs. 2A, S2 and S3). If these three residues are important for the antagonistic effect against melanopsins, the introduction of Phe-94^2.61/Ser-188^ECL2/Ser-269^6.52 into the non-mammalian-type melanopsins would make them susceptible to AA92593. As expected, the substitutions of C94^2.61F/T188S^ECL2/A269^6.52S in Xenopus Opn4x and chicken Opn4-1 increased their sensitivity to AA92593 by ∼49% and ∼22%, respectively (Fig. 6, B and E, G–I). Based on the loss-of-function properties of F94^2.61C/S188^ECL2T/S269^6.52A mutants of mammalian-type melanopsins and the gain-of-function properties of C94^2.61F/T188^ECL2S/A269^6.52S mutants of non-mammalian-type melanopsins (Figs. 2G, 3E, 6, G and H), we propose that Phe-94^2.61, Ser-188^ECL2, and Ser-269^6.52 are required for specific interactions with AA92593 as an effective antagonist. […]

[2] = test system: chicken Opn4-1 WT
Description: as §1

[3] = target: T2, belcheri melanopsin WT (Branchiostoma belcheri, UniProt Q4R1I4)
T2 construct: expressed in transfected cells; host or cells: COS-1
T2 sequence (Q4R1I4 1-410 limits assumed): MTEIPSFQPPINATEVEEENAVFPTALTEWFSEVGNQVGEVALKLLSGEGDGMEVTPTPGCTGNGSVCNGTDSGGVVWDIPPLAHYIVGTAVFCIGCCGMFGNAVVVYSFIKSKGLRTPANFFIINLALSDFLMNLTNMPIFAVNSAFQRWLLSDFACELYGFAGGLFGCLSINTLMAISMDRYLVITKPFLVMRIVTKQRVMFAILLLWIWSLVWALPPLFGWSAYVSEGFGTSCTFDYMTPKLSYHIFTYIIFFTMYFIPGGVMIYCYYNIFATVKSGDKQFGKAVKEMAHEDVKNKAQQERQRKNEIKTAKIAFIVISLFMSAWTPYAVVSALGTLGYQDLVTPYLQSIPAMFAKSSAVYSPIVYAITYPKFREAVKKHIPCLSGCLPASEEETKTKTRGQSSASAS
Description: Non-mammalian-type melanopsins were successfully converted into AA92593-susceptible types by introducing Phe-94^2.61/Ser-188^ECL2/Ser-269^6.52 or Phe-207^5.42 (Fig. 6). We attempted to extend the functional conversion targets to invertebrate melanopsin (see Fig. S2). […] We assessed the susceptibility of belcheri and lanceolatum melanopsins to AA92593 using the GsX GloSensor assay with Gsα/q11. In the absence of AA92593, the belcheri melanopsin produced smaller light-dependent cAMP responses than the other melanopsins assessed in this study (Fig. 7A), whereas the lanceolatum melanopsin produced robust cAMP responses upon light illumination (Fig. 7B). […] On the other hand, responses by the lanceolatum melanopsin were insensitive to the antagonist (Fig. 7B), similar to non-mammalian-type melanopsins (Fig. 6, A and D). […]
For GloSensor assay, opsins, GloSensor assay sensor (coded by pGlo-22F), and NanoBiT-tagged G proteins were transiently expressed in COS-1 cells (kindly provided from Dr David Farrens, Oregon Health and Science University) using PEI as described previously ([24], [52]). […] For GFP-fluorescence microscopy, a 35-mm cell culture dish (IWAKI) was transfected with 2 μg melanopsin-GFP plasmid and 8 μg PEI in 400 μl Opti-mem and 1.2 ml D-MEM. […]

T1 sequence (O57422 1-334 limits assumed): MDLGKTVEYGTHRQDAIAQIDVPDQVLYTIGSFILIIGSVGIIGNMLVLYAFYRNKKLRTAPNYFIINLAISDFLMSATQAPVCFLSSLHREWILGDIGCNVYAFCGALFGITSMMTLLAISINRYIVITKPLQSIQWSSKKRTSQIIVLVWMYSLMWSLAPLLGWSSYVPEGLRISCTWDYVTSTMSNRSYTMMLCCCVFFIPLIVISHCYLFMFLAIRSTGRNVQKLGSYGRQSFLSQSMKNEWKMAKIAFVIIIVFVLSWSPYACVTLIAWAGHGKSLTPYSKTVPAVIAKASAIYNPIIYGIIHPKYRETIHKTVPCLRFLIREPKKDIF

**Q.** How did the “inhibition of the light-dependent responses” value [1] turn out when COc1ccc(S(=O)(=O)N2CCCCC2)cc1C [AA92593] was run?
**A.** Its value is “did not effectively inhibit”.

**Q.** And the “inhibition of the light-dependent responses” value [2]?
**A.** The value was “did not effectively inhibit”.

**Q.** What about the “reduction of light-induced cellular responses by the addition of AA92593” value [3] of the same compound?
**A.** Its value is ~34%.

Source: publication PMC12051620, “Molecular basis underlying the specificity of an antagonist AA92593 for mammalian melanopsins” (The Journal of Biological Chemistry, 2025)
